{"source": "patent US12414968B2", "about": "“Compositions comprising bacterially derived minicells and methods of using the same” (EnGeneIC Molecular Delivery Pty Ltd, priority 2018, dated 2025)", "molecules": {"B1": {"name": "IFN-γ: type II interferon, given free at 0.5 or 0.75 × 10^4 IU per dose (protein, UniProt P01580 23-155, looked up)", "Interferon gamma": "HGTVIESLESLNNYFNSSGIDVEEKSLFLDIWRNWQKDGDMKILQSQIISFYLRLFEVLKDNQAISNNISVIESHLITTFFSNSKAKKDAFMSIAKFEVNNPQVQRQAFNELIRVVHQLLPESSLRKRKRSRC"}}, "key": {"[1]": {"tested_on": "Adreno-cortical cancer cell lines ACC01 and ACC07", "test": "MTS cell proliferation assay, ACC01 and ACC07", "details": "72 hrs, lines derived from Stage IV patients", "protocol": "All cells were incubated for a further 72 hrs followed by the colorimetric MTS cell proliferation assay (Cory et al., Cancer Commun., 3(7): 207-12 (1991)) using the CellTiter 96 AQueous One Solution Cell Proliferation Assay (Promega Corp., Madison, Wis., USA), according to the manufacturer's instructions. The colorimetric measurements were read at 490 nm."}, "[2]": {"tested_on": "human STING alleles", "details": "Corrales et al., 2015, Fu et al.; cited from earlier work"}, "[3]": {"tested_on": "human peripheral blood monocytes (PBMCs)", "details": "multiple donors with different STING genotypes; cited from earlier work"}, "[4]": {"tested_on": "human breast cancer cell line MDA-MB-468", "test": "MTS cell proliferation assay, MDA-MB-468", "assay_type": "cell-based", "details": "72 hrs"}, "[5]": {"tested_on": "Glioblastoma cell line U87-MG", "test": "MTS cell proliferation assay, U87-MG", "assay_type": "cell-based", "details": "72 hrs"}, "[6]": {"tested_on": "MiaPaca-2 cells", "test": "MTS cell proliferation assay, MiaPaca-2", "assay_type": "cell-based, human", "details": "72 hrs"}, "[7]": {"tested_on": "MiaPaca-2 GemR cells", "test": "MTS cell proliferation assay, MiaPaca-2 GemR", "assay_type": "cell-based, human", "details": "72 hrs"}, "[8]": {"tested_on": "human colorectal cancer cell lines Caco-2 and HCT116", "test": "MTS cell proliferation assay, Caco-2 and HCT116", "assay_type": "cell-based", "details": "72 hrs"}, "[9]": {"tested_on": "bone marrow derived dendritic cells (BMDC) with CT26Ep12.1 cells", "test": "BMDC / treated CT26Ep12.1 co-culture", "assay_type": "cell-based, mouse", "details": "48 h co-incubation", "procedure": "The effect of tumor cell death in response to Ep-EDV, Ep-EDV-682, and 682 treatment on dendritic cell maturation was also examined (FIGS. 27E-27I). Bone marrow derived dendritic cells (BMDC) were co-incubated with treated tumor cells (4T1 and CT26Ep12.1) for 48 h, followed by assessment of the production of the type 1 interferons IFNα and IFNβ. Increases in type 1 interferon production by dendritic cells is well established as a mechanism of dendritic cell maturation and enhanced antigen presentation as well as being vital for their interaction with other immune cell subsets including NK cells and T-cells (Fitzgerald-Bocarsly and Feng, 2007; Simmons et al., 2012).\nBone Marrow Derived DCs (BMDC): Bone marrow was isolated from the femurs and tibias of Balb/c mice. […]\nMacrophage and DC/Tumor Cell Co-cultures: CT26Ep12.1 and 4T1 cells were harvested with Versene (Gibco) and cells were collected in 1 mL Eppendorf tubes. […] RAW264.7/tumor cell co-cultures were collected using a cell scraper and samples were stained with DAPI (Sigma), anti-CD45 Brilliant Violet 510 (BioLegend), anti-CD86 APC-Cy7, and anti-CD206 AF488 and assessed by flow cytometry. […] RNA concentration was determined on an Eppendorf biophotometer plus. […] Data was exported to excel and the relative quantitation was calculated from the ΔΔCt."}, "[10]": {"tested_on": "A549 (lung cancer) xenografts", "test": "A549 xenograft, EDVsDox with IFN-γ (FIG. 20)", "assay_type": "in vivo, Balb/c nu/nu mice", "details": "i.v. tail vein; IFN-γ 0.5 × 10^4 IU per dose", "source_text": "(§1) Lung cancer: To study the anti-tumor effects of combining ^EGFREDVsDox and IFN-γ (type II IFN) in a lung cancer model, A549 (lung cancer) xenografts in Balb/c nu/nu mice were established and divided into four groups receiving different treatment combinations by intravenous tail vein injection. Group 1 received sterile physiological saline (FIG. 20, open diamonds). Group 2 received IFN-γ (0.5×10^4 IU) per dose (FIG. 20, solid triangles). Group 3 received ^EGFREDVsDox (FIG. 20, solid squares). Group 4 received ^EGFREDVsDox and IFN-γ (0.5×10^4 IU) per dose (FIG. 20, solid circles)."}, "[11]": {"tested_on": "MDA-MB 468 xenografts", "test": "MDA-MB 468 breast cancer xenograft, EDVsDox with IFN-γ (FIGS. 21, 22)", "assay_type": "in vivo, Balb/c nu/nu mice", "details": "IFN-γ 0.5 × 10^4 IU per dose", "source_text": "as §1, with “Breast” for “Lung”, “IFN-γ” for “IFN-γ (type II IFN)”, “breast” for “lung”, “MDA-MB 468” for “A549 (lung cancer)”, “21,” for “20,”"}}}
{"molecule": "COC(=O)c1cc2c([nH]1)C(=O)C=C1N(C(=O)c3cc4cc(OC)c(OC)c(OC)c4[nH]3)C[C@H]3C[C@]123", "note": "[duocarmycin]", "values": [{"measurement": "cytotoxic effect / resistance of the cell lines", "setting": "[1]", "result": "potent cytotoxic effects"}]}
{"molecule": "Nc1ncnc2c1ncn2[C@@H]1O[C@@H]2COP(O)(=S)O[C@@H]3C(O)[C@@H](COP(O)(=S)O[C@H]2[C@H]1O)O[C@H]3n1cnc2c(N)ncnc21", "note": "(stereo partly drawn) [ML RR-S2 CDA]", "values": [{"measurement": "activation of human STING alleles", "setting": "[2]", "result": "broadly activate all known human STING alleles"}, {"measurement": "expression of IFN-β", "setting": "[3]", "result": "dose-dependent expression of IFN-β"}]}
{"molecule": "O=C1c2c(O)ccc(O)c2C(=O)c2c(NCCNCCO)ccc(NCCNCCO)c21", "note": "[mitoxantrone]", "values": [{"measurement": "cytotoxic effect / resistance of the cell lines", "setting": "[1]", "result": "highly resistant"}]}
{"molecule": "CC(=O)O[C@H]1C(=O)[C@@]2(C)[C@H]([C@H](OC(=O)c3ccccc3)[C@]3(O)C[C@H](OC(=O)[C@H](O)[C@@H](NC(=O)c4ccccc4)c4ccccc4)C(C)=C1C3(C)C)[C@]1(OC(C)=O)CO[C@@H]1C[C@@H]2O", "note": "[paclitaxel]", "values": [{"measurement": "inhibition of proliferation / resistance of the cell line", "setting": "[4]", "result": "resistant"}, {"measurement": "cytotoxic effect / resistance of the cell lines", "setting": "[1]", "result": "highly resistant"}]}
{"molecule": "CC(=O)O[C@H]1C(=O)[C@@]2(C)[C@H]([C@H](OC(=O)c3ccccc3)[C@]3(O)C[C@H](OC(=O)[C@H](O)[C@@H](NC(=O)c4ccccc4)c4ccccc4)C(C)=C1C3(C)C)[C@]1(OC(C)=O)CO[C@@H]1C[C@@H]2O", "note": "[paclitaxel IVAX, paclitaxel]", "values": [{"measurement": "inhibition of proliferation / resistance of the cell line", "setting": "[5]", "result": "resistant"}]}
{"molecule": "CN(Cc1cnc2nc(N)nc(N)c2n1)c1ccc(C(=O)N[C@@H](CCC(=O)O)C(=O)O)cc1", "note": "[mathotrxate]", "values": [{"measurement": "inhibition of proliferation / resistance of the cells", "setting": "[6]", "result": "resistant"}]}
{"molecule": "Clc1ccc(C(c2ccccc2Cl)C(Cl)Cl)cc1", "note": "(stereo not drawn) [mitotane]", "values": [{"measurement": "cytotoxic effect / resistance of the cell lines", "setting": "[1]", "result": "highly resistant"}]}
{"molecule": "Nc1ccn([C@@H]2O[C@H](CO)[C@@H](O)C2(F)F)c(=O)n1", "note": "[gemzar]", "values": [{"measurement": "inhibition of proliferation / resistance of the cells", "setting": "[6]", "result": "resistant"}, {"measurement": "inhibition of proliferation / resistance of the cells", "setting": "[7]", "result": "resistant"}]}
{"molecule": "CCc1c2c(nc3ccc(OC(=O)N4CCC(N5CCCCC5)CC4)cc13)-c1cc3c(c(=O)n1C2)COC(=O)[C@]3(O)CC", "note": "[irinotecan]", "values": [{"measurement": "inhibition of proliferation / resistance of the cells", "setting": "[6]", "result": "resistant"}]}
{"molecule": "O=c1[nH]cc(F)c(=O)[nH]1", "note": "[5-Fluoro Uracil (5-FU), 5-Fluoro Uracil]", "values": [{"measurement": "inhibition of proliferation / resistance of the cells", "setting": "[6]", "result": "resistant"}]}
{"molecule": "O=C1[O][Pt]2([NH][C@@H]3CCCC[C@H]3[NH]2)[O]C1=O", "note": "[oxaliplatin]", "values": [{"measurement": "inhibition of proliferation / resistance of the cells", "setting": "[6]", "result": "resistant"}]}
{"molecule": "CC(=O)O[C@@]12CO[C@@H]1C[C@H](O)[C@@]1(C)C(=O)[C@H](O)C3=C(C)[C@@H](OC(=O)[C@H](O)[C@@H](NC(=O)OC(C)(C)C)c4ccccc4)C[C@@](O)([C@@H](OC(=O)c4ccccc4)[C@H]21)C3(C)C", "note": "[docetaxel]", "values": [{"measurement": "inhibition of proliferation / resistance of the cell line", "setting": "[4]", "result": "resistant"}]}
{"molecule": "COc1cccc2c1C(=O)c1c(O)c3c(c(O)c1C2=O)C[C@@](O)(C(=O)CO)C[C@@H]3O[C@H]1C[C@H](N)[C@H](O)[C@H](C)O1", "note": "[doxorubicin]", "values": [{"measurement": "inhibition of proliferation / resistance of the cell line", "setting": "[4]", "result": "resistant"}, {"measurement": "inhibition of proliferation / resistance of the cell lines", "setting": "[8]", "result": "resistant"}, {"measurement": "inhibition of proliferation / resistance of the cell line", "setting": "[5]", "result": "resistant"}, {"measurement": "inhibition of proliferation / resistance of the cells", "setting": "[6]", "result": "resistant"}, {"measurement": "increase in IFNβ mRNA production", "setting": "[9]", "result": "~5", "unit": "fold"}, {"measurement": "cytotoxic effect / resistance of the cell lines", "setting": "[1]", "result": "highly resistant"}]}
{"molecule": "B1", "values": [{"measurement": "Results: anti-tumor efficacy", "setting": "[10]", "result": "no anti-tumor efficacy"}, {"measurement": "Results: anti-tumor efficacy, Exp. #2 (FIG. 22)", "setting": "[11]; listed as IFN-", "result": "no anti-tumor efficacy"}, {"measurement": "Results: anti-tumor efficacy, Exp. #1 (FIG. 21)", "setting": "[11]; i.v. tail vein", "result": "no anti-tumor efficacy"}]}
